Assay results taken from US10196609B2, “Composition for promoting cardiac differentiation of pluripotent stem cell comprising EGFR inhibitor” (Kyoto University, priority 2013, dated 2019).

Experiments:
[1] = tested on: Monkey ES cells; assay: Cardiac differentiation of monkey ES cells (α-MHC promoter-GFP) in adhesion culture, GFP fluorescence by HCS; assay type: cell-based; details: for effect of promoting cardiac differentiation (GFP fluorescence): added Days 4-8 together with KYO2111 (10 µM), AG1478 20 μM, read at Day 10, FIGS. 1-3
Method: At Day 10 of culture, compounds that enhanced GFP fluorescence were identified by measuring GFP fluorescence with HCS (high contents screening) system (Olympus IX81 inverted microscope and Molecular device/MetaMorph imaging system).
During Days 4-8 of culture KYO2111 (10 μM) and PP3 (3 μM, 10 μM, 30 μM, or 100 μM) were added.

[2] = tested on: human ES cells (KhES-3); assay: Cardiac differentiation of human ES cells in floating culture, percentage of cTnT-positive cardiomyocytes by flow cytometry; assay type: cell-based; details: for effect to promote cardiac differentiation in combination with XAV939 only: XAV+AG1478 or gefitinib; for effect to promote cardiac differentiation in combination with XAV939 only / effect to promote cardiac differentiation by itself: human ES or iPS cells, cell line not stated, FIG. 8; for effect to promote cardiac differentiation by itself: without addition of KYO2111 and XAV939
Method: (§1) Human ES cells or iPS cells subcultured with mouse feeder cells were collected. Colonies of the human ES cells or iPS cells (3-10×10^6 cells/well) were plated on 6-well plates of Ultra-low culture dish (CORNING 3261), and cultured in an IMDM-based medium having a defined composition (IMDM (Sigma) containing 1% MEM non-essential amino acid solution (Sigma), 1% penicillin-streptomycin (Gibco), 2 mM L-glutamine (Sigma), 0.5 mM L-carnitine (Sigma), 0.001% 2-mercaptoethanol (Gibco), and 0.4% human serum albumin (Sigma)) in floating culture for 30 days (FIG. 5). During Days 0-2 of culture (for 2 days), CHIR99021 (Axon) (4 μM) and BIO (Calbiochem) (1 μM) were added, and during Days 3-9 of culture (for 6 days) KYO2111 (10 μM) and XAV939 (1 μM) were added. […] The cardiac differentiation was evaluated by analyzing the percentage of cardiomyocytes with flow cytometry using an antibody against cardiac troponin T (cTnT), a specific marker of cardiac muscle at Day 30 of culture.

[3] = tested on: Human iPS cells (253G1); assay: Cardiac differentiation of human iPS cells in feeder-free sphere culture, cTnT flow cytometry; assay type: cell-based; details: 10 μM Days 3-9 in addition to KYO2111 (10 μM) and XAV939 (1 μM); Day 30; increased from 34% without EGFR inhibitor; FIG. 9
Method: Human iPS cells (253G1) were cultured in sphere culture without feeder cells (feeder-free sphere culture). In detail, 253G1 cells subcultured with mouse feeder cells were collected, the cell cluster was passed through […] (CellTrics, PARTEC04004-2327) to give uniform cell clusters having the size of 80-120 μm, the cells were plated in 6-well plates of Ultra-low culture dish (CORNING 3261) and cultured in mTeSR1 medium (Stem Cell Technology 05850) containing 3% methylcellulose (R&D, HSC001) in floating culture until the size of the colonies of the iPS cells arrived at about 200-300 μm. The cells were subcultured more than 20 times by repeating the steps of this feeder-free sphere culture. The medium was replaced with an IMDM-based medium having a defined composition (IMDM (Sigma) containing 1% MEM non-essential amino acid solution (Sigma), 1% penicillin-streptomycin (Gibco), 2 mM L-glutamine (Sigma), 0.5 mM L-carnitine (Sigma), 0.001% 2-mercaptoethanol (Gibco), and 0.4% human serum albumin (Sigma)) and the cells were cultured in floating culture for 30 days (FIG. 5). […] The cardiac differentiation was evaluated by analyzing the percentage of cardiomyocytes with flow cytometry using an antibody against cardiac troponin T (cTnT), a specific marker of cardiac muscle at Day 30 of culture.

[4] = Effect to promote cardiac differentiation by the methods of WO2012/026491; assay type: cell-based; details: methods described in the Examples of WO2012/026491
Description: The effect of SO3031 (KY01-I), SO2031 (KY02-I), SO3042 (KY03-I), and SO2077 to promote cardiac differentiation was confirmed by the methods described in the Examples of WO2012/026491.

[5] = tested on: human iPS cells (IMR90-1); assay: Cardiac differentiation of human iPS cells in floating culture, percentage of cTnT-positive cardiomyocytes by flow cytometry; assay type: cell-based; details: 5-20 μM added Days 2-9 of culture, FIG. 7
Method: as §1

[6] = target: Src kinase (Homo sapiens, UniProt P12931); details: cited from earlier work
Src kinase, sequence (P12931 whole entry): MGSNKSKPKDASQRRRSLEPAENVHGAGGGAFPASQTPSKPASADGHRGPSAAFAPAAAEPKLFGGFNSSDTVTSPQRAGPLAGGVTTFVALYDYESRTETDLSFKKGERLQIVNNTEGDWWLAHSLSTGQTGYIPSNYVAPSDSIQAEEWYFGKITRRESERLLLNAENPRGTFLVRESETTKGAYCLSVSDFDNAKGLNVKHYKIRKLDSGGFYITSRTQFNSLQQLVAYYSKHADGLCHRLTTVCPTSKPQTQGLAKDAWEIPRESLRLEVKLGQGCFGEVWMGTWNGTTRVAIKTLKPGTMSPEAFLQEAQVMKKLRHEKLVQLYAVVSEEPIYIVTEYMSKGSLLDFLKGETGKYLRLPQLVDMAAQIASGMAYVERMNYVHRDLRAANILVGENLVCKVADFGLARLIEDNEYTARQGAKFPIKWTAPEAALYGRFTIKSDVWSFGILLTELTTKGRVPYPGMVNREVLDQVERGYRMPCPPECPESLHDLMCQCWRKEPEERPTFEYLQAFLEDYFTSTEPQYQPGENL

COc1cc2ncnc(Nc3ccc(F)c(Cl)c3)c2cc1OCCCN1CCOCC1 [gefitinib]
effect of promoting cardiac differentiation (GFP fluorescence) [1]: have the effect of promoting cardiac differentiation
promotion of cardiac differentiation ([2]; 10 μM added Days 0-2 of culture, with CHIR99021+BIO Days 0-2, KYO2111+XAV939 Days 3-9, Day 30, FIG. 6): did not promote cardiac differentiation
effect to promote cardiac differentiation in combination with XAV939 only [2]: produced an effect to promote cardiac differentiation
effect to promote cardiac differentiation by itself [2]: produced an effect to promote cardiac differentiation
percentage of cardiomyocytes [3]: about 50%

CCCOc1ccc(CCC(=O)Nc2nc3ccc(I)cc3s2)cc1OC [SO2077, 2-(3-(3-methoxy-4-propoxyphenyl)propanamide)-6-iodobenzothiazole]
effect to promote cardiac differentiation [4]: confirmed

COc1ccc(CCC(=O)Nc2nc3ccc(I)cc3s2)cc1OC [SO2031, 2-(3-(3,4-dimethoxyphenyl)propanamide)-6-iodobenzothiazole]
effect to promote cardiac differentiation [4]: confirmed

COc1cc2ncnc(Nc3cccc(Cl)c3)c2cc1OC [AG1478]
synergistic promotion of cardiac differentiation with KYO2111 ([1]; Wnt signaling inhibitor KYO2111 added together, FIG. 4): synergistically promoted cardiac differentiation
synergistic promotion of cardiac differentiation with XAV939 ([1]; Wnt signaling inhibitor XAV939 added together, FIG. 4): synergistically promoted cardiac differentiation
effect of promoting cardiac differentiation (GFP fluorescence) [1]: had the effect of promoting cardiac differentiation
percentage of cardiomyocytes ([2]; 20 μM, Days 2-9, stated for human ES (KhES-3) and iPS (IMR90-1) cells together, Day 30, FIG. 7): 92-95%
cardiac differentiation efficiency ([2]; 5-20 μM added Days 2-9 of culture, KhES-3, FIG. 7): the cardiac differentiation efficiency was increased
effect to promote cardiac differentiation in combination with XAV939 only [2]: produced an effect to promote cardiac differentiation
effect to promote cardiac differentiation by itself [2]: produced an effect to promote cardiac differentiation
cardiac differentiation efficiency [5]: the cardiac differentiation efficiency was increased
percentage of cardiomyocytes [3]: about 50%

COc1ccc(CC(=O)Nc2nc3ccc(I)cc3s2)cc1OC [SO3031, 2-(2-(3,4-dimethoxyphenyl)acetamide)-6-iodobenzothiazole]
effect to promote cardiac differentiation [4]: confirmed

COc1ccc(CCCC(=O)Nc2nc3ccc(I)cc3s2)cc1OC [SO3042, 2-(4-(3,4-dimethoxyphenyl)butanamide)-6-iodobenzothiazole]
effect to promote cardiac differentiation [4]: confirmed

Nc1ncnc2c1cnn2-c1ccccc1 [PP3]
enhancement of the effect of KYO2111 to promote cardiac differentiation ([1]; PP3 3, 10, 30 or 100 μM with KYO2111 (10 μM), Days 4-8, FIG. 10): enhance the effect of KYO2111 to promote cardiac differentiation
inhibitory effect on Src kinase [6]: no inhibitory effect
